From patent US10538521B2, “Pyrimidine derivative having antimalarial activity” (CARNA BIOSCIENCES, INC., priority 2016, dated 2020)

Tests used:
[1] = tested on: K1 strain, a drug resistant strain of Plasmodium falciparum; experiment: In vitro antimalarial assay (p-LDH, Malstat), K1 strain; type: cell-based; conditions: P. falciparum K1 (drug resistant), 72 h culture, p-LDH readout, read-out: Antimalarial activity (IC50 value), Strain K1
In short: (§1)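 IC50 derived from concentration-response of parasite lactate dehydrogenase signal (Malstat reagent, NBT/PES formazan at 655 nm) after freeze-thaw lysis. Infected erythrocytes (hematocrit 2%, parasitaemia 0.5 or 1%) exposed 72 h to 12.5–0.0001 μM final compound under 3% O2-4% CO2-93% N2, FCR3 and K1 alike.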

[2] = tested on: FCR3 strain, a drug sensitive strain of Plasmodium falciparum; experiment: In vitro antimalarial assay (p-LDH, Malstat), FCR3 strain; type: cell-based; conditions: P. falciparum FCR3 (drug sensitive), 72 h culture, p-LDH readout, read-out: Antimalarial activity (IC50 value), Strain FCR3
In short: as §1

SMILES | IC50 [1] | IC50 [2]
Cc1ccnc(Nc2nc(N)cc(Nc3ccn4ccnc4c3)n2)c1 [Example 50, N4-(imidazo[1,2-a]pyridin-7-yl)-N2-(4-methylpyridin-2-yl) pyrimidine-2,4,6-triamine] | < 100 nM | < 100 nM
c1cn2ccc(Nc3cc(N4CCOCC4)nc(Nc4ccc(OC5CCCCC5)nc4)n3)cc2n1 [Example 81, N2-(6-(cyclohexyloxy)pyridin-3-yl)-N4-(imidazo[1,2-a]pyridin-7-yl)-6-morpholinopyrimidine-2,4-diamine] | 100 to 1000 nM | 100 to 1000 nM
Cc1cc(C)nc(Nc2nc(Nc3ccn4ccnc4c3)cc(N3CCC(C)(C)CC3)n2)c1 [Example 182, 6-(4,4-dimethylpiperidin-1-yl)-N2-(4,6-dimethylpyridin-2-yl)-N4-(imidazo[1,2-a]pyridine-7-yl)pyrimidine-2,4-diamine] | 100 to 1000 nM | 100 to 1000 nM
FC(F)(F)COc1ccc(Nc2nc(Nc3ccn4ccnc4c3)cc(N3CCOCC3)n2)cn1 [Example 77, N4-(imidazo[1,2-a]pyridin-7-yl)-6-morpholino-N2-(6-(2,2,2-trifluoroethoxy)pyridin-3-yl) pyrimidine-2,4-diamine] | 100 to 1000 nM | < 100 nM
CCc1cc(C)cc(Nc2nc(Nc3ccn4ccnc4c3)cc(N3CCCCC3)n2)n1 [Example 189, N2-(6-ethyl-4-methylpyridin-2-yl)-N4-(imidazo[1,2-a]pyridin-7-yl)-6-(piperidin-1-yl)pyrimidine-2,4-diamine] | < 100 nM | < 100 nM
Cc1cc(C)nc(Nc2nc(Nc3ccn4ccnc4c3)cc(N3CCC(C)C3)n2)c1 (stereo not shown) [Example 146, N2-(4,6-dimethylpyridin-2-yl)-N4-(imidazo[1,2-a]pyridin-7-yl)-6-(3-methylpyrrolidin-1-yl)pyrimidine-2,4-diamine] | < 100 nM | < 100 nM
Cc1ccc(Nc2nc(Nc3ccn4ccnc4c3)cc(N3CCOCC3)n2)nc1C [Example 87, N2-(5,6-dimethylpyridin-2-yl)-N4-(imidazo[1,2-a]pyridin-7-yl)-6-morpholinopyrimidine-2,4-diamine] | < 100 nM | < 100 nM
CCc1ccnc(Nc2nc(Nc3ccn4ccnc4c3)cc(N3CCC(N4CCCCC4)CC3)n2)c1 [Example 113, 6-([1,4′-bipiperidin]-1′-yl)-N2-(4-ethylpyridin-2-yl)-N4-(imidazo[1,2-a]pyridin-7-yl)pyrimidine-2,4-diamine] | < 100 nM | < 100 nM
Cc1ccc(Nc2nc(Nc3ccn4ccnc4c3)cc(N3CCCCC3)n2)nc1C [Example 88, N2-(5,6-dimethylpyridin-2-yl)-N4-(imidazo[1,2-a]pyridin-7-yl)-6-(piperidin-1-yl)pyrimidine-2,4-diamine] | < 100 nM | < 100 nM
CCc1ccnc(Nc2nc(Nc3ccn4ccnc4c3)cc(N3CCN(C)[C@@H](C)C3)n2)c1 [Example 101, (S)-6-(3,4-dimethylpiperazin-1-yl)-N2-(4-ethylpyridin-2-yl)-N4-(imidazo[1,2-a]pyridin-7-yl)pyrimidine-2,4-diamine] | 1000 to 10000 nM | 100 to 1000 nM
Cc1cc(C)nc(Nc2nc(NCc3ccccc3)cc(Nc3ccn4ccnc4c3)n2)c1 [Example 196, N4-benzyl-N2-(4,6-dimethylpyridin-2-yl)-N6-(imidazo[1,2-a]pyridin-7-yl)pyrimidine-2,4,6-triamine] | < 100 nM | < 100 nM
Fc1ncccc1Nc1nc(Nc2ccn3ccnc3c2)cc(N2CCOCC2)n1 [Example 11, N2-(2-Fluoropyridin-3-yl)-N4-(imidazo[1,2-a]pyridin-7-yl)-6-morpholinopyrimidine-2,4-diamine] | 1000 to 10000 nM | 100 to 1000 nM
CCc1ccnc(Nc2nc(Nc3ccn4ccnc4c3)cc(N3CCN(C)[C@H](C)C3)n2)c1 [Example 104, (R)-6-(3,4-dimethylpiperazin-1-yl)-N2-(4-ethylpyridin-2yl)-N4-(imidazo[1,2-a]pyridin-7-yl)pyrimidine-2,4-diamine] | 1000 to 10000 nM | 100 to 1000 nM
Cc1cc(C)nc(Nc2nc(Nc3ccn4ccnc4c3)cc(N3CC=CC3)n2)c1 [Example 139, 6-(2,5-dihydro-1H-pyrrol-1-yl)-N2-(4,6-dimethylpyridin-2-yl)-N4-(imidazo[1,2-a]pyridin-7-yl)pyrimidine-2,4-diamine] | < 100 nM | < 100 nM
CCCCc1cccc(Nc2nc(Nc3ccn4ccnc4c3)cc(N3CCC(C)(C)C3)n2)n1 [Example 168, N2-(6-butylpyridin-2-yl)-6-(3,3-dimethylpyrrolidin-1-yl)-N4-(imidazo[l,2-a]pyridin-7-yl) pyrimidine-2,4-diamine] | 100 to 1000 nM | < 100 nM
CCCCOc1ccc(Nc2nc(Nc3ccn4ccnc4c3)cc(N3CCOCC3)n2)cn1 [Example 62, N2-(6-butoxypyridin-3-yl)-N4-(imidazo[1,2-a]pyridin-7-yl)-6-morpholinopyrimidine-2,4-diamine] | 100 to 1000 nM | 100 to 1000 nM

SMILES | IC50 [1] | IC50 [2]
CCOc1cc(Nc2ccn3ccnc3c2)nc(Nc2ccc(OC(C)C)nc2)n1 [Example 57, 6-Ethoxy-N4-(Imidazo[1,2-a]pyridin-7-yl)-N2-(6-isopropoxypyridin-3-yl)pyrimidine-2,4-diamine] | 1000 to 10000 nM | 100 to 1000 nM
CCCc1ccnc(Nc2nc(Nc3ccn4ccnc4c3)cc(N3CCCCC3)n2)c1 [Example 75, N4-(imidazo[1,2-a]pyridin-7-yl)-6-(piperidin-1-yl)-N2-(4-propylpyridin-2-yl)pyrimidine-2,4-diamine] | 100 to 1000 nM | < 100 nM
CCCOc1cccc(Nc2nc(Nc3ccn4ccnc4c3)cc(N3CCCC3)n2)n1 [Example 151, N4-(imidazo[1,2-a]pyridin-7-yl)-N2-(6-propoxypyridin-2-yl)-6-(pyrrolidin-1-yl)pyrimidine-2,4-diamine] | 100 to 1000 nM | 100 to 1000 nM
c1ccc(Oc2ccc(Nc3nc(Nc4ccn5ccnc5c4)cc(N4CCOCC4)n3)cn2)cc1 [Example 90, N4-(imidazo[1,2-a]pyridin-7-yl)-6-morpholino-N2-(6-phenoxypyridin-3-yl)pyrimidine-2,4-diamine] | 100 to 1000 nM | < 100 nM
CCOCc1cccc(Nc2nc(Nc3ccn4ccnc4c3)cc(N3CCCC3)n2)n1 [Example 171, N2-[6-(ethoxymethyl)pyridin-2-yl]-N4-(imidazo[1,2-a]pyridin-7-yl)-6-(pyrrolidin-1-yl) pyrimidine-2,4-diamine] | 100 to 1000 nM | 100 to 1000 nM
Fc1ccc(Nc2nc(Nc3ccn4ccnc4c3)cc(N3CCOCC3)n2)cn1 [Example 12, N2-(6-Fluoropyridin-3-yl)-N4-(imidazo[1,2-a]pyridin-7-yl)-6-morpholinopyrimidine-2,4-diamine] | 100 to 1000 nM | 100 to 1000 nM
COC1CCN(c2cc(Nc3ccn4ccnc4c3)nc(Nc3cc(C)cc(C)n3)n2)C1 (stereo not shown) [Example 140, N2-(4,6-dimethylpyridin-2-yl)-N4-(imidazo[1,2-a]pyridin-7-yl)-6-(3-methoxypyrrolidin-1-yl)pyrimidine-2,4-diamine] | < 100 nM | < 100 nM
Cc1cc(C)nc(Nc2nc(Nc3ccn4ccnc4c3)cc(N3CCN[C@@H](C)C3)n2)c1 [Example 31, (S)-N2-(4,6-dimethylpyridin-2-yl)-N4-(imidazo[1,2-a]pyridin-7-yl)-6-(3-methylpiperazin-1-yl)pyrimidine-2,4-diamine] | 100 to 1000 nM | 100 to 1000 nM
COc1cccc(Nc2nc(Nc3ccn4ccnc4c3)cc(N3CCCCC3)n2)n1 [Example 144, N4-(imidazo[1,2-a]pyridin-7-yl)-N2-(6-methoxypyridin-2-yl)-6-(piperidin-1-yl)pyrimidine-2,4-diamine] | 100 to 1000 nM | 100 to 1000 nM
CCc1ccnc(Nc2nc(Nc3ccn4ccnc4c3)cc(N3CCCCCC3)n2)c1 [Example 92, 6-(azepan-1-yl)-N2-(4-ethylpyridin-2-yl)-N4-(imidazo[1,2-a]pyridin-7-yl)pyrimidine-2,4-diamine] | < 100 nM | < 100 nM
COc1ccnc(Nc2nc(Nc3ccn4ccnc4c3)cc(N3CCOCC3)n2)c1 [Example 48, N4-(imidazo[1,2-a]pyridin-7-yl)-N2-(4-methoxypyridin-2-yl)-6-morpholinopyrimidine-2,4-diamine] | < 100 nM | < 100 nM
c1cc(Nc2nc(Nc3ccn4ccnc4c3)cc(N3CCCC3)n2)nc(OCCN2CCOCC2)c1 [Example 154, N4-(imidazo[1,2-a]pyridin-7-yl)-N2-[6-(2-morpholinoethoxy)pyridin-2-yl]-6-(pyrrolidin-1-yl)pyrimidine-2,4-diamine] | < 100 nM | < 100 nM
Cc1cc(C)nc(Nc2nc(Nc3ccn4ccnc4c3)cc(N3CCN(C)CC3)n2)c1 [Example 30, N2-(4,6-dimethylpyridin-2-yl)-N4-(imidazo[1,2-a]pyridin-7-yl)-6-(4-methylpiperazin-1-yl) pyrimidine-2,4-diamine] | < 100 nM | < 100 nM
Cc1cc(C)nc(Nc2nc(Nc3ccn4ccnc4c3)cc(N3CCC3)n2)c1 [Example 166, 6-(azetidin-1-yl)-N2-(4,6-dimethylpyridin-2-yl)-N4-(imidazo [1,2-a]pyridin-7-yl)pyrimidine-2,4-diamine] | < 100 nM | < 100 nM
COc1ccnc(Nc2nc(Nc3ccn4ccnc4c3)cc(N3CCC4(CCCC4)C3)n2)c1 [Example 207, N4-(imidazo[1,2-a]pyridin-7-yl)-N2-(4-methoxypyridin-2-yl)-6-(2-azaspiro[4.4]nonan-2-yl) pyrimidine-2,4-diamine] | 100 to 1000 nM | 100 to 1000 nM
FC(F)(F)c1ccnc(Nc2nc(Nc3ccn4ccnc4c3)cc(N3CCOCC3)n2)c1 [Example 47, N4-(imidazo[1,2-a]pyridin-7-yl)-6-morpholino-N2-(4-(trifluoromethyl)pyridin-2-yl) pyrimidine-2,4-diamine] | 100 to 1000 nM | < 100 nM
